Paper PMC7044277 (Nature Communications, 2020)
Several values for one entry are separate records, joined by “and”; a condition that tells them apart may be missing. Equal entries are not always repeated.

Key:
[1] = target: T1, DRD4 (D4.4 variant) wild-type (Homo sapiens, UniProt P21917); assay: Radioligand competition binding, [3H]-N-methylspiperone; conditions: for Fig_1a competition binding curve, source data: Log [L-741626]
T1 sequence (P21917 1-419): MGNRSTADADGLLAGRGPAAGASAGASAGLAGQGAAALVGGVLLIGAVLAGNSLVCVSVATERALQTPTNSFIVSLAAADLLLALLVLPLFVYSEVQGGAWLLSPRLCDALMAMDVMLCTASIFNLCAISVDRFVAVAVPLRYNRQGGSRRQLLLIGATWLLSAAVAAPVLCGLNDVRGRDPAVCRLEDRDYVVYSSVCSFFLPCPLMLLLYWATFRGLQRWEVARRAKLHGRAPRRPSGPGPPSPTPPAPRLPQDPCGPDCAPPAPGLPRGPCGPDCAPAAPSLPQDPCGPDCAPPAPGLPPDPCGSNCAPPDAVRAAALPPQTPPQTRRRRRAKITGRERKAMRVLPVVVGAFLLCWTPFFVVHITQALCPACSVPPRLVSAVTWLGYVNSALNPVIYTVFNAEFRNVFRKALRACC

DRD2 F1103.28L = target: T2, DRD2 F1103.28L (Homo sapiens, UniProt P14416, F110L); type: binding
T2 construct: expressed in transfected cells; host or cells: HEK293T (ATCC CRL-11268)
T2 sequence (P14416 whole entry F110L): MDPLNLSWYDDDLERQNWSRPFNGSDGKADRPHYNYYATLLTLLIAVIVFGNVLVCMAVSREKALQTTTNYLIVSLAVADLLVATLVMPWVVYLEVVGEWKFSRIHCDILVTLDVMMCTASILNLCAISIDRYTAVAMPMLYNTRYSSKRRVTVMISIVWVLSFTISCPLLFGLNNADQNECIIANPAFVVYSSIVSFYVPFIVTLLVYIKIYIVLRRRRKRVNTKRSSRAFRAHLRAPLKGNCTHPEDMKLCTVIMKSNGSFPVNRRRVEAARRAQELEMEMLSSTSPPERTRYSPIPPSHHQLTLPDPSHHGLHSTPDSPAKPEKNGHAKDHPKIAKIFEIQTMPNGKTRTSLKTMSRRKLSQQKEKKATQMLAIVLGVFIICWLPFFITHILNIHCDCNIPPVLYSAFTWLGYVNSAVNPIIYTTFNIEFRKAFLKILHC

DRD3 wild-type = DRD3 wild-type (Homo sapiens, UniProt P35462); assay: Radioligand competition binding, [3H]-N-methylspiperone; parameters: Fig_1a competition binding curve, source data: unit not given here; conditions: for Fig_1a competition binding curve, source data: Log [L-741626]
Sequence of DRD3 wild-type (P35462 whole entry): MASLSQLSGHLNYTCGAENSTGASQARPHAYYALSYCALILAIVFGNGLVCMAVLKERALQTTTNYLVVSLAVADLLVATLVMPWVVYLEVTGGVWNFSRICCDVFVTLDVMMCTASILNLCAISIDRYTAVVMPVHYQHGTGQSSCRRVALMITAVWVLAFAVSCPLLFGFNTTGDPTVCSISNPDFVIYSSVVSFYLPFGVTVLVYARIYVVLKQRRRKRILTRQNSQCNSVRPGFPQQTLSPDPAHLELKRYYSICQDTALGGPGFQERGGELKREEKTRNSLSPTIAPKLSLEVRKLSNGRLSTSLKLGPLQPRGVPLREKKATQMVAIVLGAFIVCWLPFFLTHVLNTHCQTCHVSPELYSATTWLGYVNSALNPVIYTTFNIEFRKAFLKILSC

DRD2 L942.64A = target: T3, DRD2 L942.64A (Homo sapiens, UniProt P14416, L94A); type: binding; conditions: DRD2 L942.64A vs DRD2 wild-type
T3 construct: expressed in transfected cells; host or cells: HEK293T (ATCC CRL-11268)
T3 sequence (P14416 whole entry L94A): as the sequence (P14416 whole entry F110L) above, with L94A, L110F counted along it

DRD2 W100EL1A = target: T4, DRD2 W100EL1A (Homo sapiens, UniProt P14416, W100A); type: binding; conditions: DRD2 W100EL1A vs wild-type
T4 construct: expressed in transfected cells; host or cells: HEK293T (ATCC CRL-11268)
T4 sequence (P14416 whole entry W100A): as the sequence (P14416 whole entry F110L) above, with W100A, L110F counted along it

DRD2 F1103.28E = target: T5, DRD2 F1103.28E (Homo sapiens, UniProt P14416, F110E); type: binding; conditions: DRD2 F1103.28E vs wild-type
T5 construct: expressed in transfected cells; host or cells: HEK293T (ATCC CRL-11268)
T5 sequence (P14416 whole entry F110E): as the sequence (P14416 whole entry F110L) above, with L110E counted along it

DRD2 Y4087.35A = target: T6, DRD2 Y4087.35A (Homo sapiens, UniProt P14416, Y408A); type: binding; conditions: DRD2 Y4087.35A vs wild-type
T6 construct: expressed in transfected cells; host or cells: HEK293T (ATCC CRL-11268)
T6 sequence (P14416 whole entry Y408A): as the sequence (P14416 whole entry F110L) above, with L110F, Y408A counted along it

DRD2 F1103.28W = target: T7, DRD2 F1103.28W (Homo sapiens, UniProt P14416, F110W); type: binding
T7 construct: expressed in transfected cells; host or cells: HEK293T (ATCC CRL-11268)
T7 sequence (P14416 whole entry F110W): as the sequence (P14416 whole entry F110L) above, with L110W counted along it

DRD2 W100ECL1F = target: T8, DRD2 W100ECL1F (Homo sapiens, UniProt P14416, W100F); type: binding; conditions: DRD2 W100ECL1F vs wild-type
T8 construct: expressed in transfected cells; host or cells: HEK293T (ATCC CRL-11268)
T8 sequence (P14416 whole entry W100F): as the sequence (P14416 whole entry F110L) above, with W100F, L110F counted along it

DRD2 F1103.28Y = target: T9, DRD2 F1103.28Y (Homo sapiens, UniProt P14416, F110Y); type: binding
T9 construct: expressed in transfected cells; host or cells: HEK293T (ATCC CRL-11268)
T9 sequence (P14416 whole entry F110Y): as the sequence (P14416 whole entry F110L) above, with L110Y counted along it

DRD2 F1103.28C = target: T10, DRD2 F1103.28C (Homo sapiens, UniProt P14416, F110C); type: binding; conditions: DRD2 F1103.28C vs wild-type
T10 construct: expressed in transfected cells; host or cells: HEK293T (ATCC CRL-11268)
T10 sequence (P14416 whole entry F110C): as the sequence (P14416 whole entry F110L) above, with L110C counted along it

DRD2 F1103.28A = DRD2 F1103.28A (Homo sapiens, UniProt P14416, F110A); type: binding; parameters: expressed in transfected cells; host or cells: HEK293T (ATCC CRL-11268)
Sequence of DRD2 F1103.28A (P14416 whole entry F110A): as the sequence (P14416 whole entry F110L) above, with L110A counted along it

DRD3 F1063.28A = DRD3 F1063.28A (Homo sapiens, UniProt P35462, F106A); assay: biochemical; type: binding
Sequence of DRD3 F1063.28A (P35462 whole entry F106A): as the sequence (P35462 whole entry) above, with F106A counted along it

[2] = target: DRD2 (D2 long receptor) wild-type (Homo sapiens, UniProt P14416); assay: Radioligand competition binding, [3H]-N-methylspiperone, HEK293T membranes; parameters: Fig_1a competition binding curve, source data: unit not given here; conditions: Log [L-741626]
Sequence of DRD2 (D2 long receptor) wild-type (P14416 whole entry): as the sequence (P14416 whole entry F110L) above, with L110F counted along it

DRD2 V1113.29A = target: T11, DRD2 V1113.29A (Homo sapiens, UniProt P14416, V111A); type: binding; conditions: DRD2 V1113.29A vs wild-type
T11 construct: expressed in transfected cells; host or cells: HEK293T (ATCC CRL-11268)
T11 sequence (P14416 whole entry V111A): as the sequence (P14416 whole entry F110L) above, with L110F, V111A counted along it

## OC1(c2ccc(Cl)cc2)CCN(Cc2c[nH]c3ccccc23)CC1 [L-741626]
[1]
  Ki: 170 nM
[1]; M -7
  Fig_1a competition binding curve, source data: 75.0526 and 67.9047 and 62.8591 and 59.9159 and 75.8935
[1]; M -8
  Fig_1a competition binding curve, source data: 91.8711 and 84.3027 and 93.5529 and 96.4962
[1]; M -8.5
  Fig_1a competition binding curve, source data: 103.224 and 99.4394 and 102.803 and 91.8711
[1]; M -9
  Fig_1a competition binding curve, source data: 79.2572 and 91.8711 and 89.7687 and 85.9846 and 96.9166 and 113.735
[1]; M -9.5
  Fig_1a competition binding curve, source data: 89.7687 and 87.246 and 104.905 and 87.6664 and 93.1325 and 88.9278
[1]; M -10
  Fig_1a competition binding curve, source data: 74.6321 and 83.0413 and 75.8935 and 70.4275 and 85.5641 and 84.3027
[1]; M -11
  Fig_1a competition binding curve, source data: 92.712 and 78.8367 and 85.1437 and 96.4962 and 77.9958 and 82.6209
[1]; M -12
  Fig_1a competition binding curve, source data: 77.1549 and 85.1437 and 89.7687 and 83.4618 and 81.3595
[1]; M -13
  Fig_1a competition binding curve, source data: 88.0869 and 85.5641 and 82.6209 and 79.6776 and 79.2572
DRD2 F1103.28L; DRD2 F1103.28L vs wild-type
  ΔpKi (mutant-WT): 1.27
DRD2 F1103.28L; DRD2 Phe110^3.28Leu vs wild-type DRD2
  binding enhanced, mutant vs wild type: 18.65 fold
DRD3 wild-type
  Ki: 186 nM
DRD3 wild-type; M -6
  Fig_1a competition binding curve, source data: 32.8337 and 26.7408 and 38.6364 and 33.7041 and 31.0928
DRD3 wild-type; M -7
  Fig_1a competition binding curve, source data: 71.7118 and 82.4468 and 88.2495 and 78.675 and 74.323 and 84.4778
DRD3 wild-type; M -8.5
  Fig_1a competition binding curve, source data: 107.108 and 98.6944 and 100.725 and 87.3791 and 104.497 and 101.596
DRD3 wild-type; M -9
  Fig_1a competition binding curve, source data: 98.4043 and 97.5338 and 93.7621 and 84.7679 and 88.8298 and 89.7002
DRD3 wild-type; M -9.5
  Fig_1a competition binding curve, source data: 87.3791 and 78.3849 and 90.2805 and 81.5764 and 85.058 and 98.1141
DRD3 wild-type; M -10
  Fig_1a competition binding curve, source data: 76.9342 and 89.7002 and 81.8665 and 72.2921 and 84.1876 and 72.0019
DRD3 wild-type; M -11
  Fig_1a competition binding curve, source data: 74.6132 and 85.6383 and 84.7679 and 77.8046 and 89.7002 and 91.441
DRD3 wild-type; M -12
  Fig_1a competition binding curve, source data: 84.7679 and 85.9284 and 102.466 and 78.0948 and 88.2495
DRD3 wild-type; M -13
  Fig_1a competition binding curve, source data: 63.0077 and 75.4836 and 75.1934 and 78.675 and 77.5145 and 81.2863
DRD2 L942.64A
  ΔpKi (mutant-WT): -0.45
DRD2 W100EL1A
  ΔpKi (mutant-WT): -0.79
DRD2 F1103.28E
  ΔpKi (mutant-WT): 0.03
DRD2 Y4087.35A
  ΔpKi (mutant-WT): -0.10
DRD2 F1103.28W; DRD2 F1103.28W vs wild-type
  ΔpKi (mutant-WT): -0.93
DRD2 F1103.28W; DRD2 Phe110^3.28Trp vs wild-type DRD2
  binding reduced, mutant vs wild type: 8.51 fold
DRD2 W100ECL1F
  ΔpKi (mutant-WT): -0.85
DRD2 F1103.28Y; DRD2 F1103.28Y vs wild-type
  ΔpKi (mutant-WT): -1.76
DRD2 F1103.28Y; DRD2 Phe110^3.28Tyr vs wild-type DRD2
  binding reduced, mutant vs wild type: 57.54 fold
DRD2 F1103.28C
  ΔpKi (mutant-WT): 0.61
DRD2 F1103.28A; DRD2 F1103.28A vs wild-type
  ΔpKi (mutant-WT): 2.14
DRD2 F1103.28A; DRD2 Phe110^3.28Ala vs wild-type DRD2
  affinity increase (binding enhanced), mutant vs wild type: 144.18 fold
DRD3 F1063.28A
  Ki: 5.37 nM
DRD3 F1063.28A; DRD3 F1063.28A vs DRD3 wild-type
  ΔpKi (mutant-WT): 1.54
DRD3 F1063.28A; DRD3 Phe106^3.28Ala vs wild-type DRD3
  binding affinity increased, mutant vs wild type: 34.67 fold
[2]; M -4, replicates
  Fig_1a competition binding curve, source data: -1.355 and 1.993 and -0.6377 and -1.594 and 3.428 and -1.8334
[2]; M -7
  Fig_1a competition binding curve, source data: 29.733 and 32.3635 and 33.0809 and 32.8418 and 34.0375 and 33.3201
[2]; M -8
  Fig_1a competition binding curve, source data: 78.2782 and 80.4304 and 73.2563 and 83.061 and 72.778 and 84.4958
[2]; M -8.5
  Fig_1a competition binding curve, source data: 93.8222 and 94.0614 and 107.453 and 92.6265 and 93.1048
[2]; M -9
  Fig_1a competition binding curve, source data: 100.279 and 96.4528 and 102.67 and 87.1264 and 100.04 and 104.584
[2]; M -9.5
  Fig_1a competition binding curve, source data: 97.4093 and 108.171 and 98.605 and 95.0179 and 103.388
[2]; M -10
  Fig_1a competition binding curve, source data: 91.5385 and 88.2344 and 89.4739
[2]; M -11
  Fig_1a competition binding curve, source data: 89.0395 and 93.1048 and 90.4743 and 90.2352 and 86.4089 and 84.7349
[2]; M -12
  Fig_1a competition binding curve, source data: 100.518 and 86.6481 and 95.4962 and 94.7788 and 98.1268 and 94.5397
[2]; M -13
  Fig_1a competition binding curve, source data: 93.8222 and 89.2786 and 87.6046 and 85.6915 and 92.3874 and 93.1048
DRD2 V1113.29A
  ΔpKi (mutant-WT): -0.26
